Laboratory results published in ChEMBL document CHEMBL1938377, “Synthesis and evaluation of 17α-E-20-(heteroaryl)norpregn-1,3,5(10),20 tetraene-3,17β-diols [17α-(heteroaryl)vinyl estradiols] as ligands for the estrogen receptor-α ligand binding domain (ERα-LBD)” (Bioorg Med Chem Lett, 2012).
pEC50: −log10 of the molar value. Calls of active or inactive are those of the source. The rule behind the calls is not given here.

Key:
[1] = target: T1, Estrogen receptor (Homo sapiens) (UniProt P03372); test: Displacement of [3H]-estradiol from human […] LBD expressed in Escherichia coli at 1 uM to 1 pM relative to estradiol
T1 sequence (whole entry): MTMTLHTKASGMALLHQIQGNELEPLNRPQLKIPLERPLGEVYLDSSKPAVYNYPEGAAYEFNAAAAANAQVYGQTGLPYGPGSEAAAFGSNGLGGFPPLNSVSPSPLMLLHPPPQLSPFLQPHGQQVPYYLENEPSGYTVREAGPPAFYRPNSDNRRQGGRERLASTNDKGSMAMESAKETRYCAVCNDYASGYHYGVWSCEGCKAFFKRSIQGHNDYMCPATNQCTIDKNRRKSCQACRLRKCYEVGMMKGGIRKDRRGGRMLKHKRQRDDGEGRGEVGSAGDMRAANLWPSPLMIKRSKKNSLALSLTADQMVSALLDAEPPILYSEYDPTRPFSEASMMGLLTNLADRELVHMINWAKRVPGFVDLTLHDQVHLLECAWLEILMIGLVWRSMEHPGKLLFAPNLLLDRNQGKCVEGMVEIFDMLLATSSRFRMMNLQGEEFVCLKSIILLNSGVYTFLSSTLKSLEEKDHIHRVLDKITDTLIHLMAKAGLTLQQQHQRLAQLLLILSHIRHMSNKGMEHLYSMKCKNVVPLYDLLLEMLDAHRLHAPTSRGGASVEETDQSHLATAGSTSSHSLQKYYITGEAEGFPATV

[2] = Agonist activity at estrogen receptor in human Ishikawa cells assessed as increase of alkaline phosphatase level after 3 days using P-nitrophenyl phosphate as substrate relative to estradiol; format: functional
Ishikawa = test: Antagonist activity at estrogen receptor in human Ishikawa cells assessed as inhibition of estradiol-induced alkaline phosphatase level after 3 days using P-nitrophenyl phosphate as substrate; format: functional, cell-based
[3] = Agonist activity at estrogen receptor in human Ishikawa cells assessed as increase of alkaline phosphatase level after 3 days using P-nitrophenyl phosphate as substrate; format: functional, cell-based; conditions: 72 h

Compound | RBA [1] | RSA [2] [%] | inhibition (Ishikawa) | pEC50 [3]
C[C@]12CC[C@@H]3c4ccc(O)cc4CC[C@H]3[C@@H]1CC[C@@]2(O)/C=C/c1cncnc1 | 0.8 | 0.4 | inactive | 
C[C@]12CC[C@@H]3c4ccc(O)cc4CC[C@H]3[C@@H]1CC[C@@]2(O)/C=C/c1cccs1 | 2.7 | 2.5 | inactive | 
C[C@]12CC[C@@H]3c4ccc(O)cc4CC[C@H]3[C@@H]1CC[C@@]2(O)/C=C/c1cccnc1 | 4 | 0.25 | inactive | 
C[C@]12CC[C@@H]3c4ccc(O)cc4CC[C@H]3[C@@H]1CC[C@@]2(O)/C=C/c1ccccc1 | 10.3 | 9.5 | inactive | 
C[C@]12CC[C@@H]3c4ccc(O)cc4CC[C@H]3[C@@H]1CC[C@@]2(O)/C=C/c1ccccn1 | 1.5 | 0.1 | inactive | 
C[C@]12CC[C@@H]3c4ccc(O)cc4CC[C@H]3[C@@H]1CC[C@@]2(O)/C=C/c1ccncc1 | 2.5 | 0.1 | inactive | 
C[C@]12CC[C@@H]3c4ccc(O)cc4CC[C@H]3[C@@H]1CC[C@@]2(O)/C=C/c1ccsc1 | 2.9 | 2.5 | inactive | 
C[C@]12CC[C@@H]3c4ccc(O)cc4CC[C@H]3[C@@H]1CC[C@@H]2O [ESTRADIOL] |  |  |  | 9.05
